Data reported in ChEMBL document CHEMBL4837263, “N-Aromatic-Substituted Indazole Derivatives as Brain-Penetrant and Orally Bioavailable JNK3 Inhibitors” (ACS Med Chem Lett, 2021).
Calls of active or inactive are those of the source. The rule behind the calls is not given here.

Key:
CYP1A2 = molecular target: T1, CYP1A2 (Homo sapiens, UniProt P05177); assay: Inhibition of CYP1A2 (unknown origin) assessed as phenaceten demethylation to acetaminophen at 10 uM by cocktail inhibition assay relative to control; conditions: probe phenacetin (demethylation to acetaminophen)
T1 sequence (P05177 whole entry): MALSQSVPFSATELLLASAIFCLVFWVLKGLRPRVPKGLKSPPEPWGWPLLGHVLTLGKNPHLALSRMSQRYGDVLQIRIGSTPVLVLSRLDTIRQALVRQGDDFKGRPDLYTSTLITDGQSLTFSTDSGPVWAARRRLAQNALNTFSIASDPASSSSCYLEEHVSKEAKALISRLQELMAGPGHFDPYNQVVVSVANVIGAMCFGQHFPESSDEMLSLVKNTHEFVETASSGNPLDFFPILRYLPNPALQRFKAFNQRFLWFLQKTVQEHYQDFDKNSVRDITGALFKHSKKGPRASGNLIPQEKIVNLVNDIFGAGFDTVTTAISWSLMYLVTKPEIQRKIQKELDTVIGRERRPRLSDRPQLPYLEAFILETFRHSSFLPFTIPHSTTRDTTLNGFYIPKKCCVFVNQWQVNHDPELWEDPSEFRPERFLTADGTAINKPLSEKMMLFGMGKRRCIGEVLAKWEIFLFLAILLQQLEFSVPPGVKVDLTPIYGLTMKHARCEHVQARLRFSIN

CYP2C9 = CYP2C9 (Homo sapiens, UniProt P11712); assay: Inhibition of CYP2C9 (unknown origin) assessed as tolbutamide hydroxylation to hydrocytolbutamide at 10 uM by cocktail inhibition assay relative to control; conditions: probe tolbutamide (hydroxylation to hydroxytolbutamide)
Cytochrome P450 2C9 = Cytochrome P450 2C9 (Homo sapiens, UniProt P11712); assay: Inhibition of CYP2C9 (unknown origin) by titration method
[1] = Stability in human liver microsome assessed as half life; assay type: ADME; conditions: liver microsomes
[2] = molecular target: Mitogen-activated protein kinase 8 (Homo sapiens, UniProt P45983); assay: Inhibition of JNK1 (unknown origin) using biotinylated FL-ATF-2 as substrate measured after 22 mins by homogeneous time-resolved fluorescence analysis
[3] = molecular target: Mitogen-activated protein kinase 9 (Homo sapiens, UniProt P45984); assay: Inhibition of JNK2 (unknown origin) using biotinylated FL-ATF-2 as substrate measured after 22 mins by homogeneous time-resolved fluorescence analysis
[4] = Stability in mouse liver microsome assessed as half life; assay type: ADME; conditions: liver microsomes
[5] = Selectivity index, ratio of IC50 for JNK1 (unknown origin) to IC50 for JNK3 (unknown origin)
[6] = molecular target: Mitogen-activated protein kinase 10 (Homo sapiens, UniProt P53779); assay: Inhibition of JNK3alpha1 (unknown origin) using biotinylated FL-ATF-2 as substrate measured after 22 mins by homogeneous time-resolved fluorescence analysis
[7] = Selectivity index, ratio of IC50 for JNK2 (unknown origin) to IC50 for JNK3 (unknown origin)
SH-SY5Y = assay: Cytotoxicity against human SH-SY5Y cells assessed as reduction in cell viability at 10 uM measured after 48 hrs by MTT assay; assay type: cell-based
[8] = molecular target: Voltage-gated inwardly rectifying potassium channel KCNH2 (Homo sapiens, UniProt Q12809); assay: Inhibition of human ERG expressed in CHO cells at -80 mV holding potential by automated Qpatch electrophysiological method
[9] = Selectivity index, ratio of IC50 for p38 alpha (unknown origin) to IC50 for JNK3 (unknown origin)
CYP3A4 = CYP3A4 (Homo sapiens, UniProt P08684); assay: Inhibition of CYP3A4 (unknown origin) assessed as midazolam hydroxylation to 1'-hydroxy midazolam at 10 uM by cocktail inhibition assay relative to control; conditions: probe midazolam (hydroxylation to 1'-hydroxy midazolam)
[10] = molecular target: Mitogen-activated protein kinase 14 (Homo sapiens, UniProt Q16539); assay: Inhibition of p38 alpha (unknown origin) using biotinylated FL-ATF-2 as substrate measured after 22 mins by homogeneous time-resolved fluorescence analysis
CYP2D6 = CYP2D6 (Homo sapiens, UniProt P10635); assay: Inhibition of CYP2D6 (unknown origin) assessed as bufuralol hydroxylation to 4'-hydroxy bufuralol at 10 uM by cocktail inhibition assay relative to control; conditions: probe bufuralol (hydroxylation to 4'-hydroxy bufuralol)
[11] = molecular target: Mitogen-activated protein kinase 10 (Rattus norvegicus) (UniProt P49187); assay: Inhibition of JNK3 in rat primary neuron assessed as reduction in phosphorylation of APP at T668 residue at < 1 nM incubated for 30 mins by Western blot analysis; conditions: dose nM <1, time 30.0 min
Chain of Mitogen-activated protein kinase 10 (Rattus norvegicus) (P49187 whole entry): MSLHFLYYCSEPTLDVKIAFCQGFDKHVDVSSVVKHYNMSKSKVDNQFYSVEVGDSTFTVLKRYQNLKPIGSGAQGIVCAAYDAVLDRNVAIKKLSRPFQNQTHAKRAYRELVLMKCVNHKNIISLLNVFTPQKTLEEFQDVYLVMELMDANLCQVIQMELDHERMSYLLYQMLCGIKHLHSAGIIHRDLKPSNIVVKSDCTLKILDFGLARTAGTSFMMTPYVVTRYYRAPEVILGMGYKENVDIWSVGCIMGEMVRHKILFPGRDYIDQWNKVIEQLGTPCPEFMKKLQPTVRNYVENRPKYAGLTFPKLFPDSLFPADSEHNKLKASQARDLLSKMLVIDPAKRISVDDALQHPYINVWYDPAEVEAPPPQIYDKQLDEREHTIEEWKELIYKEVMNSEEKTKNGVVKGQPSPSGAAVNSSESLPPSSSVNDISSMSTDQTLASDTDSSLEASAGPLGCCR

Chain of Mitogen-activated protein kinase 14 (Q16539 whole entry): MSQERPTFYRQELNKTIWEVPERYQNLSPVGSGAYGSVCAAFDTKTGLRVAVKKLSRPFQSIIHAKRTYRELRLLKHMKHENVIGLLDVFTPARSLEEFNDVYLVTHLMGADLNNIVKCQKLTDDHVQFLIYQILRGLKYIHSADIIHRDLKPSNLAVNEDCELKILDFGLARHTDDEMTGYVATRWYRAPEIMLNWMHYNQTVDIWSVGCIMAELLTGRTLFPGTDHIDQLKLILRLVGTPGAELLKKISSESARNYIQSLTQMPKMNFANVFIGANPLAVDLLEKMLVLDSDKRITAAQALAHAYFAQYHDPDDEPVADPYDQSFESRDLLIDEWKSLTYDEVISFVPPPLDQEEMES
Chain of Mitogen-activated protein kinase 9 (P45984 whole entry): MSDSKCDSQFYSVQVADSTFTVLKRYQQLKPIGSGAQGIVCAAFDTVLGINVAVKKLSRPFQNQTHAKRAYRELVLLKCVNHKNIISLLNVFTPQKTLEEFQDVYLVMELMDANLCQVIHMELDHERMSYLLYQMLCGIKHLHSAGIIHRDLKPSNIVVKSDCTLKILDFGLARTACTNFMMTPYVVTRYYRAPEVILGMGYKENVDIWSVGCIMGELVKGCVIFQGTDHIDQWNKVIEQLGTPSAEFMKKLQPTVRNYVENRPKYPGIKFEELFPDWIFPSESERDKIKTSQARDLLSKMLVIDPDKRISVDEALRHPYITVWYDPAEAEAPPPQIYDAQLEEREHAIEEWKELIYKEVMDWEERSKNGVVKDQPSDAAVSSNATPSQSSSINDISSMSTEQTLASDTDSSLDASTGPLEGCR
Chain of Mitogen-activated protein kinase 10 (P53779 whole entry): as the sequence (P49187 whole entry) above, with H27Q, S32Y, V33I, V34A counted along it
Chain of CYP3A4 (P08684 whole entry): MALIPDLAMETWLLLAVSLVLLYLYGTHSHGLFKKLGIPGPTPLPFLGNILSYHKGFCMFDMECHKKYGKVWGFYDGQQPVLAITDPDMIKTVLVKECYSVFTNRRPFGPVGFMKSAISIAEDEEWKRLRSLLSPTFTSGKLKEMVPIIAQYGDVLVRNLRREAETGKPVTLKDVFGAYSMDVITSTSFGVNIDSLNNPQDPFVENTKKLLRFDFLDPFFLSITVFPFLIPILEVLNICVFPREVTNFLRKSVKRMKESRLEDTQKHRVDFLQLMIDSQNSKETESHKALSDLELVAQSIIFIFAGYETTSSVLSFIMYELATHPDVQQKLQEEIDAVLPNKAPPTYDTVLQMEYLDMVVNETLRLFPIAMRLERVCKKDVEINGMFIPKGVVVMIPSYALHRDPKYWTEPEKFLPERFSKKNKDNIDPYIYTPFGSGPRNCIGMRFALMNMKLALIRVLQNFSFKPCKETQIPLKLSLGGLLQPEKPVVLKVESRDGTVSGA
Chain of Mitogen-activated protein kinase 8 (P45983 whole entry): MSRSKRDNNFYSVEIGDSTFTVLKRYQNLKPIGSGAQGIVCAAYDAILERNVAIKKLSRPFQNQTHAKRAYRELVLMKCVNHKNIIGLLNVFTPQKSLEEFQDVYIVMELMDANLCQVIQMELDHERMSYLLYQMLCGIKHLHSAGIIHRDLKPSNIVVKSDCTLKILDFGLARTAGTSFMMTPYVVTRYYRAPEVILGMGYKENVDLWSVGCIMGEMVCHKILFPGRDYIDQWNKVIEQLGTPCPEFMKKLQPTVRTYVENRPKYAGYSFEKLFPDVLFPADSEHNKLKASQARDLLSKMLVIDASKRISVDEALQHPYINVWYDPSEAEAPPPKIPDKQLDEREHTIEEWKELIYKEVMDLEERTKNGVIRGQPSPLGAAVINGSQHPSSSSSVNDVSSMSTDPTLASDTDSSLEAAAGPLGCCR
Chain of CYP2D6 (P10635 whole entry): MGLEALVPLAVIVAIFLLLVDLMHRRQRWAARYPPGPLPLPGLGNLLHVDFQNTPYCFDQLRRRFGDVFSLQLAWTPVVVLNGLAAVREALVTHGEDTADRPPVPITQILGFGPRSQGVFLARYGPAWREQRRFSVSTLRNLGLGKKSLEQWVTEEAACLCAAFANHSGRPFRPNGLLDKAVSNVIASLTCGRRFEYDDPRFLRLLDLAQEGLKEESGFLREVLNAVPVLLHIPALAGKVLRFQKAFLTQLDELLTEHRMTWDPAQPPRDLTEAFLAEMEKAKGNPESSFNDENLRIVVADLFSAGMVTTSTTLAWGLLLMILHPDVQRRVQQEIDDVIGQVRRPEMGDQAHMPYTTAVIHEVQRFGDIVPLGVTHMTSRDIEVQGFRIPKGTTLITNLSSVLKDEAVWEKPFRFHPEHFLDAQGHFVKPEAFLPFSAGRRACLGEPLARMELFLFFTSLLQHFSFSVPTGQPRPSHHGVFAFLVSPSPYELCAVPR
Chain of CYP2C9 (P11712 whole entry): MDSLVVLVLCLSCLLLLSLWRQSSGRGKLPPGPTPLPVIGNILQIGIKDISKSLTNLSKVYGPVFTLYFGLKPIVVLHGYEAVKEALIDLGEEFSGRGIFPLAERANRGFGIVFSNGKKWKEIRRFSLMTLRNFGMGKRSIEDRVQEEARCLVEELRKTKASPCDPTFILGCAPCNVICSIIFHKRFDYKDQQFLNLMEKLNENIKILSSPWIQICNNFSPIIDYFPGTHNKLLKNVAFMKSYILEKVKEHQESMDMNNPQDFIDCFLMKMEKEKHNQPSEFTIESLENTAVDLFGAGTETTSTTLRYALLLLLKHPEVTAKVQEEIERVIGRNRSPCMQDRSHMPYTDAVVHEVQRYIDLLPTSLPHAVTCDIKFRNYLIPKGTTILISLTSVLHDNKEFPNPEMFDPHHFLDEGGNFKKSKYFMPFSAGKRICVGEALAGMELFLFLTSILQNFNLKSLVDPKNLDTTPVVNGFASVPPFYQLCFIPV
Chain of Voltage-gated inwardly rectifying potassium channel KCNH2 (Q12809 whole entry): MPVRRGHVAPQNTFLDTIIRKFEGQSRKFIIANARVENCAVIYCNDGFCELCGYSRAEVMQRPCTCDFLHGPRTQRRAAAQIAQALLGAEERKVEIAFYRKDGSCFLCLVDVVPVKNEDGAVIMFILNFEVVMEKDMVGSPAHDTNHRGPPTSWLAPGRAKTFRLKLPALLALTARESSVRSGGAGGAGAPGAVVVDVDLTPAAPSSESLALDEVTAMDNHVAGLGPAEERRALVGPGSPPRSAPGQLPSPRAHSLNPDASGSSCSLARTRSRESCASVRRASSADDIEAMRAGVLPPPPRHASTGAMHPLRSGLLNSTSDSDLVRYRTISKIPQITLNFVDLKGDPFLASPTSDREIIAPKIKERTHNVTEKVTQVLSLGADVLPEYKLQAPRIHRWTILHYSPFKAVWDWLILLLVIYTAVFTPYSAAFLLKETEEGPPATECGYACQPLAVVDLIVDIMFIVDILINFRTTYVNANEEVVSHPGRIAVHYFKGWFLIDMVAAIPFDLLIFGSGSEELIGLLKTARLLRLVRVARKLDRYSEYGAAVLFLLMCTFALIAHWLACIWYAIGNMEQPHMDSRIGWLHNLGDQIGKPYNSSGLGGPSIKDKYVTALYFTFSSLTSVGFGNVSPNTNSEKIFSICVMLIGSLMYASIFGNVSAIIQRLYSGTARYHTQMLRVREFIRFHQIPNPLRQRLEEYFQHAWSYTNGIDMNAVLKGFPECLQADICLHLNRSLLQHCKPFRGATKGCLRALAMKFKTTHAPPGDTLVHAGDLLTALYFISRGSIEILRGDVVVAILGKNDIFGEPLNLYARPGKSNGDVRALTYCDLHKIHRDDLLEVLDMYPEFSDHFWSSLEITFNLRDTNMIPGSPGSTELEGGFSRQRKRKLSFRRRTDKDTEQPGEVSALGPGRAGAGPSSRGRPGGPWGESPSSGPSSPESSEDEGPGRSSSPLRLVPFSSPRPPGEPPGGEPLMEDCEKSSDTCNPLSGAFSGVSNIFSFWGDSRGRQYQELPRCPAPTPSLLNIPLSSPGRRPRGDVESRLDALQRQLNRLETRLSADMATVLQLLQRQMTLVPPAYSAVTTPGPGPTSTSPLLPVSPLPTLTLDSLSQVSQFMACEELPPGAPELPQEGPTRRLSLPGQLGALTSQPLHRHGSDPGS
Chain of Cytochrome P450 2C9 (P11712 whole entry): as the sequence (P11712 whole entry) above

Row | SMILES | IC50 [2] [nM] | Ratio IC50 [5] | IC50 [6] [nM] | Ratio IC50 [9] | IC50 [10] [nM] | also measured
1 | CNC(=O)c1cc(-n2ncc3cc(Nc4ccccc4Cl)cnc32)cs1 | 4730 | 197 | 24 | 20 | 481 | inhibition at 10 µM (CYP1A2): 30%; inhibition at 10 µM (CYP2C9): 66%; IC50 (Cytochrome P450 2C9): 4 µM; half-life [1]: 15 min; IC50 [3]: 414 nM; half-life [4]: 14 min; Ratio IC50 [7]: 17; Cell viability (SH-SY5Y): 119%; IC50 [8]: > 100 µM; inhibition at 10 µM (CYP3A4): 57%; inhibition at 10 µM (CYP2D6): 30%
2 | CC(=O)N1CC[C@H](NC(=O)c2cc(-n3ncc4cc(Nc5ccccc5Cl)c(F)cc43)cs2)C1 | 627 | 132 | 4 | 16 | 65 | 
3 | CN1CC[C@H](NC(=O)c2cc(-n3ncc4cc(Nc5ccccc5Cl)c(F)cc43)cs2)C1 |  |  |  |  |  | Ratio IC50 ([5]; tested as the 2H-labelled form): 57; Ratio IC50 ([9]; tested as the 2H-labelled form): 60
4 | CNC(=O)c1cc(-n2ncc3cc(Nc4cccc(OC)c4Cl)c(C)nc32)cs1 | > 10000 |  | > 10000 |  | > 10000 | 
5 | CNC(=O)c1cc(-n2ncc3cc(Nc4ccccc4Cl)c(OC)cc32)cs1 | 1100 | 55 | 20 | 8 | 160 | 
6 | CNC(=O)c1cc(-n2ncc3nc(Nc4ccccc4Cl)ncc32)cs1 |  |  | 1000 |  |  | 
7 | CNC(=O)c1cc(-n2ncc3cc(Nc4c(F)cccc4Cl)c(C)nc32)cs1 | 872 | 73 | 12 | 31 | 380 | inhibition at 10 µM (CYP1A2): 43%; inhibition at 10 µM (CYP2C9): 61%; half-life [1]: 26 min; IC50 [3]: 140 nM; half-life [4]: 17 min; Ratio IC50 [7]: 11; Cell viability (SH-SY5Y): 109%; IC50 [8]: > 30 µM; inhibition at 10 µM (CYP3A4): -2%; inhibition at 10 µM (CYP2D6): 19%
8 | O=C(NCC(F)F)c1cc(-n2ncc3cc(Nc4ccccc4Cl)c(F)cc32)cs1 | 333 | 83 | 4 | 12 | 46 | 
9 | CNC(=O)c1cc(-n2ncc3cc(Nc4c(F)cccc4Cl)ncc32)cs1 | 260 | 130 | 2 | 28 | 57 | IC50 [3]: 74 nM; Ratio IC50 [7]: 37
10 | CN1CC[C@H](NC(=O)c2cc(-n3ncc4cc(Nc5ccccc5Cl)ccc43)cs2)C1 |  |  |  |  |  | Ratio IC50 ([5]; tested as the 2H-labelled form): 263; Ratio IC50 ([9]; tested as the 2H-labelled form): 226
11 | [2H]C([2H])([2H])N1CC[C@H](NC(=O)c2cc(-n3ncc4cc(Nc5ccccc5Cl)ccc43)cs2)C1 | 263 |  | 1 |  | 226 | IC50 [8]: < 1 µM
12 | COCCNC(=O)c1cc(-n2ncc3cc(Nc4ccccc4Cl)c(F)cc32)cs1 | 169 | 56 | 3 | 14 | 41 | 
13 | CNC(=O)c1cc(-n2ncc3cc(Oc4ccccc4Cl)ccc32)cs1 |  |  |  |  |  | half-life [1]: 72 min; IC50 [3]: 1020 nM; half-life [4]: 15 min; Cell viability (SH-SY5Y): 94%
14 | CNC(=O)c1cc(-n2ncc3cc(Nc4c(F)cccc4Cl)cnc32)cs1 | 213 |  | 2 |  | 106 | half-life [1]: 30 min; IC50 [3]: 52 nM; half-life [4]: 22 min; Cell viability (SH-SY5Y): 104%
15 | O=C(NC1CCOCC1)c1cc(-n2ncc3cc(Nc4ccccc4Cl)c(F)cc32)cs1 | 120 | 60 | 2 | 24 | 47 | 
16 | [2H]C([2H])([2H])N1CC[C@H](NC(=O)c2cc(-n3ncc4cc(Nc5ccccc5Cl)c(F)cc43)cs2)C1 | 285 |  | 5 |  | 300 | IC50 [8]: < 1 µM
17 | O=C(NC1CC1)c1cc(-n2ncc3cc(Nc4ccccc4Cl)c(F)cc32)cs1 | 150 | 150 | 1 | 14 | 14 | 
18 | Cc1nc2c(cnn2-c2csc(C(=O)NC3COC3)c2)cc1Nc1ccc(F)cc1Cl | 6000 | 76 | 79 | 6 | 490 | 
19 | CC(C)NC(=O)c1cc(-n2ncc3cc(Nc4ccccc4Cl)c(F)cc32)cs1 | 400 | 200 | 2 | 62 | 124 | 
20 | O=C(N[C@H]1CCOC1)c1cc(-n2ncc3cc(Nc4ccccc4Cl)c(F)cc32)cs1 | 178 | 89 | 2 | 12 | 24 | 
21 | O=C(Nc1cnn(-c2cccc(C(=O)Nc3cnn(C4CCNC4)c3)c2)c1)Nc1ccccc1Cl (stereo unspecified) |  |  | < 1 |  | > 20000 | 

The next lines start with results.

Row | IC50 [2] [nM] | Ratio IC50 [5] | IC50 [6] [nM] | Ratio IC50 [9] | IC50 [10] [nM] | SMILES | also measured
22 | 825 | 27 | 31 | 10 | 325 | CC(C)N1CC[C@@H](NC(=O)c2cc(-n3ncc4cc(Nc5ccccc5Cl)ccc43)cs2)C1 | 
23 | > 10000 |  | 1070 |  | 2890 | Cc1nc2c(cnn2-c2csc(C(=O)NC3COC3)c2)cc1Nc1cc(F)ccc1Cl | 
24 | 690 | 139 | 5 | 17 | 86 | O=C(NC1COC1)c1cc(-n2ncc3cc(Nc4ccccc4Cl)ncc32)cs1 | 
25 | 619 | 124 | 5 | 20 | 100 | CNC(=O)c1cc(-n2ncc3cc(Nc4ccccc4Cl)c(F)cc32)cs1 | inhibition at 10 µM (CYP1A2): 21%; inhibition at 10 µM (CYP2C9): 39%; half-life [1]: 37 min; inhibition [11]: Active; IC50 [3]: 93 nM; half-life [4]: 42 min; Ratio IC50 [7]: 18; Cell viability (SH-SY5Y): 83%; IC50 [8]: > 30 µM; inhibition at 10 µM (CYP3A4): -13%; inhibition at 10 µM (CYP2D6): -4%
26 | 1050 | 75 | 14 | 29 | 400 | O=C(NC1COC1)c1cc(-n2ncc3cc(Nc4ccccc4Cl)c(F)cc32)cs1 | inhibition at 10 µM (CYP1A2): 4%; inhibition at 10 µM (CYP2C9): 41%; half-life [1]: 92 min; IC50 [3]: 1330 nM; half-life [4]: 20 min; Ratio IC50 [7]: 95; Cell viability (SH-SY5Y): 98%; inhibition at 10 µM (CYP3A4): -56%; inhibition at 10 µM (CYP2D6): -16%
27 | > 10000 | > 59 | 169 | 8 | 1420 | Cc1nc2c(cnn2-c2csc(C(=O)NC3COC3)c2)cc1Nc1cccc(F)c1Cl | 
28 |  |  |  |  | > 20000 | O=C(Nc1cnn(-c2csc(C(=O)NC3COC3)c2)c1)Nc1ccccc1Cl | Cell viability (SH-SY5Y): 104%; IC50 [8]: > 30 µM
29 | 940 | 157 | 6 | 43 | 260 | O=C(NC1COC1)c1cc(-n2ncc3cc(Nc4ccccc4Cl)cnc32)cs1 | inhibition at 10 µM (CYP1A2): 19%; inhibition at 10 µM (CYP2C9): 76%; IC50 (Cytochrome P450 2C9): 4 µM; half-life [1]: 21 min; IC50 [3]: 256 nM; half-life [4]: 9 min; Ratio IC50 [7]: 43; Cell viability (SH-SY5Y): 103%; inhibition at 10 µM (CYP3A4): 14%; inhibition at 10 µM (CYP2D6): 15%
30 | 1240 | 248 | 5 | 13 | 65 | CNC(=O)c1cc(-n2ncc3cc(Nc4c(F)cccc4OC)c(F)cc32)cs1 | 
31 |  |  | 100 |  |  | O=C(NC1COC1)c1cc(-n2ncc3nc(Nc4ccccc4Cl)ccc32)cs1 | 
32 | 258 | 129 | 2 | 12 | 24 | CNC(=O)c1cc(-n2ncc3cc(Nc4c(F)cccc4Cl)c(F)cc32)cs1 | IC50 [3]: 29 nM; Ratio IC50 [7]: 15
